Source: PubChem BioAssay (NCI)
“And” between values parts separate entries of the source, which are not always exact repeats. Identical values can stand only once.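 Growth conditions: 96-well plates. Treatment: test compound, 48 hours, 5 concentrations. Analysis: linear interpolation between bracketing concentrations; unreached endpoints set to highest concentration. The concentration for 50% growth inhibition is given as GI50. At the TGI there is no net growth.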

Columns and labels:
Assay in all cases: NCI tumour cell line growth inhibition, 48 h
786-0 renal = tested on: 786-0 renal
A549 NSCLC = tested on: A549 NSCLC
CAKI-1 renal = tested on: CAKI-1 renal
CCRF-CEM leukemia = tested on: CCRF-CEM leukemia
COLO 205 colon = tested on: COLO 205 colon
DLD-1 colon = tested on: DLD-1 colon
DMS 114 small cell lung = tested on: DMS 114 small cell lung
DMS 273 small cell lung = tested on: DMS 273 small cell lung
DU-145 prostate = tested on: DU-145 prostate
EKVX NSCLC = tested on: EKVX NSCLC
HCC-2998 colon = tested on: HCC-2998 colon
HCT-116 colon = tested on: HCT-116 colon
HCT-15 colon = tested on: HCT-15 colon
HL-60(TB) leukemia = tested on: HL-60(TB) leukemia
HOP-18 NSCLC = tested on: HOP-18 NSCLC
HOP-62 NSCLC = tested on: HOP-62 NSCLC
HS 578T breast = tested on: HS 578T breast
KM20L2 colon = tested on: KM20L2 colon
LOX IMVI melanoma = tested on: LOX IMVI melanoma
LXFL 529 NSCLC = tested on: LXFL 529 NSCLC
M14 melanoma = tested on: M14 melanoma
MALME-3M melanoma = tested on: MALME-3M melanoma
MDA-N = tested on: MDA-N
NCI-H226 lung = tested on: NCI-H226 lung
NCI-H460 lung = tested on: NCI-H460 lung
NCI-H522 lung = tested on: NCI-H522 lung
NCI/ADR-RES ovarian = tested on: NCI/ADR-RES ovarian
OVCAR-3 ovarian = tested on: OVCAR-3 ovarian
OVCAR-4 ovarian = tested on: OVCAR-4 ovarian
OVCAR-8 ovarian = tested on: OVCAR-8 ovarian
P388 leukemia = tested on: P388 leukemia
P388/ADR leukemia = tested on: P388/ADR leukemia
PC-3 prostate = tested on: PC-3 prostate
RPMI-8226 leukemia = tested on: RPMI-8226 leukemia
RXF-631 renal = tested on: RXF-631 renal
SF-268 CNS = tested on: SF-268 CNS
SF-295 CNS = tested on: SF-295 CNS
SF-539 CNS = tested on: SF-539 CNS
SK-MEL-28 melanoma = tested on: SK-MEL-28 melanoma
SK-OV-3 ovarian = tested on: SK-OV-3 ovarian
SN12C renal = tested on: SN12C renal
SN12K1 renal = tested on: SN12K1 renal
SNB-19 CNS = tested on: SNB-19 CNS
SNB-75 CNS = tested on: SNB-75 CNS
SNB-78 CNS = tested on: SNB-78 CNS
T-47D breast = tested on: T-47D breast
TK-10 renal = tested on: TK-10 renal
U251 CNS = tested on: U251 CNS
UACC-257 melanoma = tested on: UACC-257 melanoma
UACC-62 melanoma = tested on: UACC-62 melanoma
UO-31 renal = tested on: UO-31 renal
XF 498 CNS = tested on: XF 498 CNS

In the case of `O=NN(CCCl)C(=O)NCCCl`, the GI50 (786-0 renal) is reported as 60 µM and 98.6 µM, the TGI (786-0 renal) is reported as 141 µM and 113 µM and > 263 µM and the GI50 (A549 NSCLC) is reported as 210 µM. For the same compound, the TGI (A549 NSCLC) was 250 µM and 313 µM and > 379 µM, the GI50 (CAKI-1 renal) was 44.9 µM and 186 µM and the TGI (CAKI-1 renal) was 103 µM and 150 µM and > 278 µM. For the same compound, the GI50 (CCRF-CEM leukemia) was 46 µM and 33.6 µM, the TGI (CCRF-CEM leukemia) was 142 µM and 97.8 µM and 65.6 µM and the GI50 (COLO 205 colon) was 47.2 µM and 202 µM. For the same compound, the TGI (COLO 205 colon) was 90.2 µM and 144 µM and > 286 µM, the TGI (DLD-1 colon) was 176 µM and the TGI (DMS 114 small cell lung) was 142 µM. For the same compound, the TGI (DMS 273 small cell lung) was 157 µM, the GI50 (DU-145 prostate) was 95 µM and 296 µM and the TGI (DU-145 prostate) was 250 µM and 364 µM and > 377 µM. For the same compound, the GI50 (EKVX NSCLC) was 152 µM and > 268 µM, the TGI (EKVX NSCLC) was 250 µM and 225 µM and > 326 µM and the GI50 (HCC-2998 colon) was 63.5 µM and 260 µM. The TGI (HCC-2998 colon) was 161 µM and 201 µM and > 370 µM, the GI50 (HCT-116 colon) was 62.5 µM and 112 µM and the TGI (HCT-116 colon) was 155 µM and 156 µM and 256 µM. For the same compound, the GI50 (HCT-15 colon) was 52.7 µM and 121 µM, the TGI (HCT-15 colon) was 127 µM and 150 µM and > 267 µM and the GI50 (HL-60(TB) leukemia) was 30.5 µM and 11.3 µM. For the same compound, the TGI (HL-60(TB) leukemia) was 89.3 µM and 67.3 µM and 28.9 µM, the TGI (HOP-18 NSCLC) was 160 µM and the GI50 (HOP-62 NSCLC) was 64.3 µM and 281 µM. The TGI (HOP-62 NSCLC) was 135 µM and 209 µM and > 389 µM, the GI50 (HS 578T breast) was 122 µM and 252 µM and the TGI (HS 578T breast) was 205 µM and 231 µM and > 317 µM. The TGI (KM20L2 colon) was 205 µM, the GI50 (LOX IMVI melanoma) was 29.5 µM and 170 µM and the TGI (LOX IMVI melanoma) was 67.4 µM and 124 µM and 362 µM. For the same compound, the TGI (LXFL 529 NSCLC) was 141 µM, the GI50 (M14 melanoma) was 215 µM and the TGI (M14 melanoma) was 234 µM and 158 µM and > 308 µM. The GI50 (MALME-3M melanoma) was 55.9 µM and 216 µM, the TGI (MALME-3M melanoma) was 108 µM and 161 µM and > 294 µM and the GI50 (MDA-N) was 210 µM. The TGI (MDA-N) was 158 µM and > 301 µM, the GI50 (NCI-H226 lung) was 147 µM and 207 µM and the TGI (NCI-H226 lung) was 250 µM and > 383 µM. The GI50 (NCI-H460 lung) was 62.4 µM, the TGI (NCI-H460 lung) was 250 µM and 168 µM and the GI50 (NCI-H522 lung) was 47.7 µM and 102 µM. The TGI (NCI-H522 lung) was 107 µM and 113 µM and 179 µM, the GI50 (NCI/ADR-RES ovarian) was 61.7 µM and 266 µM and the TGI (NCI/ADR-RES ovarian) was 156 µM and 234 µM and > 422 µM. The GI50 (OVCAR-3 ovarian) was 63.9 µM and > 295 µM, the TGI (OVCAR-3 ovarian) was 152 µM and 159 µM and > 372 µM and the GI50 (OVCAR-4 ovarian) was 42.7 µM and > 352 µM. The TGI (OVCAR-4 ovarian) was 83.3 µM and 161 µM and > 398 µM, the GI50 (OVCAR-8 ovarian) was 51.3 µM and > 320 µM and the TGI (OVCAR-8 ovarian) was 164 µM and 197 µM and > 437 µM. It also gave a TGI (P388 leukemia) of 40.9 µM, a TGI (P388/ADR leukemia) of 48 µM and a GI50 (PC-3 prostate) of over 305 µM. The TGI (PC-3 prostate) was 209 µM and > 390 µM, the GI50 (RPMI-8226 leukemia) was 34.3 µM and 118 µM and the TGI (RPMI-8226 leukemia) was 120 µM and 198 µM and 260 µM. For the same compound, the TGI (RXF-631 renal) was 203 µM, the GI50 (SF-268 CNS) was 31 µM and the TGI (SF-268 CNS) was 98.4 µM and 138 µM and > 259 µM. For the same compound, the GI50 (SF-295 CNS) was 36.3 µM and 123 µM, the TGI (SF-295 CNS) was 250 µM and 126 µM and > 380 µM and the GI50 (SF-539 CNS) was 31 µM and 84.1 µM. The TGI (SF-539 CNS) was 92.6 µM and 116 µM and 190 µM, the TGI (SK-MEL-28 melanoma) was 147 µM and 165 µM and the GI50 (SK-OV-3 ovarian) was 226 µM and > 500 µM. The TGI (SK-OV-3 ovarian) was 250 µM and 211 µM and > 500 µM, the GI50 (SN12C renal) was 240 µM and the TGI (SN12C renal) was 185 µM and 151 µM and > 310 µM. The TGI (SN12K1 renal) was 127 µM, the GI50 (SNB-19 CNS) was 61.1 µM and 169 µM and the TGI (SNB-19 CNS) was 250 µM and 168 µM and > 380 µM. The GI50 (SNB-75 CNS) was 195 µM, the TGI (SNB-75 CNS) was 127 µM and 128 µM and > 421 µM and the TGI (SNB-78 CNS) was 198 µM. The GI50 (T-47D breast) was 74.7 µM and 234 µM, the TGI (T-47D breast) was 250 µM and 220 µM and > 331 µM and the GI50 (TK-10 renal) was 59.6 µM and > 279 µM. For the same compound, the TGI (TK-10 renal) was 144 µM and 173 µM and > 373 µM, the GI50 (U251 CNS) was 31.3 µM and 146 µM and the TGI (U251 CNS) was 66.4 µM and 124 µM and > 306 µM. For the same compound, the GI50 (UACC-257 melanoma) was over 258 µM, the TGI (UACC-257 melanoma) was 238 µM and 159 µM and > 369 µM and the GI50 (UACC-62 melanoma) was 44.9 µM and > 151 µM. For the same compound, the TGI (UACC-62 melanoma) was 169 µM and 91.9 µM and > 260 µM, the GI50 (UO-31 renal) was 75.9 µM and the TGI (UO-31 renal) was 148 µM and 186 µM and 179 µM. It also gave a TGI (XF 498 CNS) of 135 µM.
